The structures appear in SMILES notation.

The target in the test is T1, LPA1R (Homo sapiens, UniProt Q92633).
T1 construct: host or cells: LPA1R expressing cells (Millipore, GPCR Profiler)
T1 sequence (Q92633 whole entry): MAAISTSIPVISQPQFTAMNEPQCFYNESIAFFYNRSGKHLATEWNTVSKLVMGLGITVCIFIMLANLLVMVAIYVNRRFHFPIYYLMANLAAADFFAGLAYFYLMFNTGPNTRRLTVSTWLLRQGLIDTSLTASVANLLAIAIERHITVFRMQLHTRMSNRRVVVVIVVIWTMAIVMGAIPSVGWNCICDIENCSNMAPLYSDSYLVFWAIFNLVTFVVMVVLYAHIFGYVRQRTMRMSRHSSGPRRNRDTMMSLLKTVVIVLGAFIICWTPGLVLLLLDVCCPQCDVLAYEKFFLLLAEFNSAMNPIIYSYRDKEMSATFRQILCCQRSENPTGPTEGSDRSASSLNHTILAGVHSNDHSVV
Kind of test: LPA1R Ca2+ flux functional assay (antagonist mode, FLIPR). The test is classed as cell-based. The following applies: inhibition of LPA-stimulated Ca2+ flux, LPA at EC80, LPA1R expressing cells (Millipore); read-out: LPA1 R Antagonist Activity. On the procedure: Inhibition of LPA-stimulated Ca^2+ flux was used to assess compound potency using FLIPR technology in a 96 well plate format. The assay buffer used was a modified Hanks Balanced Salt Solution (HBSS) where HBSS was supplemented to contain 20 mM HEPES and 2.5 mM Probenecid at pH7.4 (Millipore, GPCR Profiler®). LPA1R expressing cells (Millipore) were plated and prepared 24 hours prior to assay of test articles. Ca^2+ ion flux was assessed from fluorescence of a Fluo-based No Wash Ca^2+ dye. Antagonist data are generated from plates with LPA concentrations sufficient to generate 80% efficacy [EC80]. Percentage inhibition was calculated from a reduction of efficacy according to concentration of compounds of Formula I-VI. For dose responses the inhibition data was used to calculate compound IC50. The agonist assay was conducted on a FLIPR^TETRA instrument where the test compound(s), vehicle controls, and reference agonist were added to the assay plate after a fluorescence baseline was established. The agonist assay was a total of 180 seconds and was used to assess each compound's ability to activate each GPCR assayed. Upon completion of the agonist assay, the assay plate was removed from the FLIPR^TETRA and incubated at 25° C. for seven (7) minutes. After the incubation period, the assay plate was placed back in the FLIPR^TETRA and the antagonist assay was initiated. Using EC80 potency values determined during the agonist assay, all pre-incubated sample compound wells were challenged with EC80 concentration of reference agonist after establishment of a fluorescence baseline. The antagonist assay was conducted using the same assay plate that was used for the agonist assay. The antagonist assay was conducted on a FLIPR^TETRA instrument where 9 vehicle controls and EC80 concentration of reference agonist were added to appropriate wells. The antagonist assay was a total of 180 seconds and was used to assess each compound's ability to inhibit each GPCR assayed. All assay plate data were subjected to appropriate baseline corrections. After baseline corrections were applied, maximum fluorescence values were exported and data processed to calculate percentage activation (relative to Emax reference agonist and vehicle control values), percentage inhibition (relative to EC80 and vehicle control values), and additional statistical values (i.e. Z′, percentage variation between replicate data values) to assess the quality of each plate. Where assay plate data were rejected, additional experiments were conducted. All dose response curves were generated using GraphPad Prism. The curves were fit by utilizing “Sigmoidal Dose Response (Variable Slope)” equation where the bottom parameter was fixed to “0.” Where appropriate, the top parameter was fixed to “100” to better predict potency values when a full curve was not generated by the concentrations assayed.
Background: Calcium flux is commonly read through the fluorescence of an indicator in the cells.
For the compound `Cc1noc(-c2ccc(C(=O)N[C@H](C(=O)O)c3ccccc3)cc2)c1NC(=O)OC(C)c1ccccc1Cl` (mixture of isomers) [Example 3, 2-(S)-(4-{4-[(R,S)-1-(2-Chloro-phenyl)-ethoxycarbonylamino]-3-methyl-isoxazol-5-yl}-benzoylamino) Phenyl Acetic Acid], the IC50 was greater than 50 µM. The same measure for `Cc1noc(-c2ccc(COC(CC3CC3)C(=O)O)cc2)c1NC(=O)O[C@H](C)c1ccccc1` (mixture of isomers) [Example 44, (RS)-3-Cyclopropyl-2-{4-[3-methyl-4-((R)-1-phenyl-ethoxycarbonylamino)-isoxazol-5-yl]-benzyloxy}-propionic Acid]: less than 0.3 µM; for `Cc1noc(-c2ccc(COC(Cc3ccc(Cl)cc3)C(=O)O)cc2)c1OC(=O)O[C@H](C)c1ccccc1` (mixture of isomers) [Example 45, (RS)-3-(4-Chloro-phenyl)-2-{4-[3-methyl-4-((R)-1-phenyl-ethoxycarbonyloxy)-isoxazol-5-yl]-benzyloxy}-propionic Acid]: less than 0.3 µM. The same measure for `Cc1noc(-c2ccc(C(=O)NC3(C(=O)O)CC3)cc2)c1NC(=O)OC(C)c1ccccc1Cl` (stereo not drawn) [Example 1, 1-(4-{4-[1-(2-Chloro-phenyl)-ethoxycarbonylamino]-3-methyl-isoxazol-5-yl}-benzoylamino)-cyclopropanecarboxylic Acid]: 1 to 50 µM. Then `Cc1noc(-c2ccc(C(=O)NC3(C(=O)O)Cc4ccccc4C3)cc2)c1NC(=O)OC(C)c1ccccc1Cl` (stereo not drawn) [Example 2, 2-(4-{4-[1-(2-Chloro-phenyl)-ethoxycarbonylamino]-3-methyl-isoxazol-5-yl}-benzoylamino)-indan-2-carboxylic Acid], with 1 to 50 µM; and `Cc1noc(-c2ccc(C(=O)NC(Cc3ccccc3)C(=O)O)cc2)c1NC(=O)OC(C)c1ccccc1Cl` [Example 4, 2-(R)-(4-{4-[(R,S)-1-(2-Chloro-phenyl)-ethoxycarbonylamino]-3-methyl-isoxazol-5-yl}-benzoylamino) Phenyl Propanoic Acid], with 0.3 to 1 µM; and `Cc1noc(-c2ccc(C(=O)N[C@H](Cc3ccccc3)C(=O)O)cc2)c1NC(=O)O[C@H](C)c1ccccc1` [Example 5, 2(R)-[[4-[3-methyl-4-((R)-1-phenylethoxycarbonylamino)isoxazol-5-yl]benzoyl]amino]-3-phenyl-propanoic Acid], with less than 0.3 µM. Turning to `Cc1noc(-c2ccc(C(=O)N[C@@H](Cc3ccccc3)C(=O)O)cc2)c1NC(=O)O[C@H](C)c1ccccc1` [Example 6, 2(S)-[[4-[3-methyl-4-((R)-1-phenylethoxycarbonylamino)isoxazol-5-yl]benzoyl]amino]-3-phenyl-propanoic Acid], the IC50 was greater than 50 µM. As to `Cc1nn(C)c(-c2ccc(C(=O)N[C@H](Cc3ccccc3)C(=O)O)cc2)c1NC(=O)O[C@H](C)c1ccccc1` [Example 7, (R)-2-[[4-[2,5-dimethyl-4-((R)-1-phenylethoxycarbonylamino)pyrazol-3-yl]benzoyl]amino]-3-phenyl-propanoic Acid], the IC50 is greater than 50 µM. As for `Cc1c(NC(=O)O[C@H](C)c2ccccc2)c(-c2ccc(C(=O)N[C@H](Cc3ccccc3)C(=O)O)cc2)nn1C` [Example 8, (R)-2-[[4-[1,5-dimethyl-4-((R)-1-phenylethoxycarbonylamino)pyrazol-3-yl]benzoyl]amino]-3-phenyl-propanoic Acid], the IC50 is greater than 50 µM. In the case of `Cc1nn(C)c(-c2ccc(C(=O)N[C@H](Cc3ccc(F)cc3)C(=O)O)cc2)c1NC(=O)O[C@H](C)c1ccccc1` [Example 9, (R)-2-[[4-[2,5-dimethyl-4-((R)-1-phenylethoxycarbonylamino)pyrazol-3-yl]benzoyl]amino]-3-(4-fluorophenyl)propanoic Acid], the IC50 was greater than 50 µM. Then `Cc1c(NC(=O)O[C@H](C)c2ccccc2)c(-c2ccc(C(=O)N[C@H](Cc3ccc(F)cc3)C(=O)O)cc2)nn1C` [Example 10, (R)-2-[[4-[1,5-dimethyl-4-((R)-1-phenylethoxycarbonylamino)pyrazol-3-yl]benzoyl]amino]-3-(4-fluorophenyl)propanoic acid], with greater than 50 µM; and `Cc1nn(C)c(-c2ccc(C(=O)N[C@H](Cc3ccc(Br)cc3)C(=O)O)cc2)c1NC(=O)O[C@H](C)c1ccccc1` [Example 11, (R)-3-(4-bromophenyl)-2-[[4-[2,5-dimethyl-4-((R)-1-phenylethoxycarbonyl-amino)pyrazol-3-yl]benzoyl]amino]propanoic Acid], with greater than 50 µM. Then `Cc1nn(C)c(-c2ccc(C(=O)N[C@H](Cc3ccc(Cl)cc3)C(=O)O)cc2)c1NC(=O)O[C@H](C)c1ccccc1` [Example 13, (R)-3-(4-chlorophenyl)-2-[[4-[2,5-dimethyl-4-((R)-1-phenylethoxycarbonyl-amino)pyrazol-3-yl]benzoyl]amino]propanoic Acid], with greater than 50 µM; and `Cc1c(NC(=O)O[C@H](C)c2ccccc2)c(-c2ccc(C(=O)N[C@H](Cc3ccc(Cl)cc3)C(=O)O)cc2)nn1C` [Example 14, (R)-3-(4-chlorophenyl)-2-[[4-[1,5-dimethyl-4-((R)-1-phenylethoxycarbonyl-amino)pyrazol-3-yl]benzoyl]amino]propanoic Acid], with greater than 50 µM. The same measure for `Cc1nn(C)c(-c2ccc(C(=O)N[C@H](Cc3ccc(F)c(F)c3)C(=O)O)cc2)c1NC(=O)O[C@H](C)c1ccccc1` [Example 15, (R)-3-(3,4-difluorophenyl)-2-[[4-[2,5-dimethyl-4-((R)-1-phenylethoxycarbonyl-amino)pyrazol-3-yl]benzoyl]amino]propanoic Acid]: greater than 50 µM; for `Cc1c(NC(=O)O[C@H](C)c2ccccc2)c(-c2ccc(C(=O)N[C@H](Cc3ccc(F)c(F)c3)C(=O)O)cc2)nn1C` [Example 16, (R)-3-(3,4-difluorophenyl)-2-[[4-[1,5-dimethyl-4-((R)-1-phenylethoxycarbonyl-amino)pyrazol-3-yl]benzoyl]amino]propanoic Acid]: greater than 50 µM; for `Cc1noc(-c2ccc(C(=O)N[C@H](CC3CC3)C(=O)O)cc2)c1NC(=O)O[C@H](C)c1ccccc1Cl` [Example 17, (R)-2-(4-{4-[(R)-1-(2-chloro-phenyl)-ethoxycarbonylamino]-3-methyl-isoxazol-5-yl}-benzoylamino)-3-cyclopropyl-propionic Acid]: less than 0.3 µM. Take `Cc1noc(-c2ccc(C(=O)N[C@H](Cc3ccccc3)C(=O)O)cc2)c1NC(=O)O[C@@H](C)c1ccccc1` [Example 18, (R)-2-{4-[3-Methyl-4-((S)-1-phenyl-ethoxycarbonylamino)-isoxazol-5-yl]-benzoylamino}-3-phenyl-propionic Acid]: the IC50 was greater than 50 µM.

With `Cc1noc(-c2ccc(C(=O)N[C@@H](Cc3ccccc3)C(=O)O)cc2)c1NC(=O)O[C@@H](C)c1ccccc1` [Example 19, (S)-2-{4-[3-Methyl-4-((S)-1-phenyl-ethoxycarbonylamino)-isoxazol-5-yl]-benzoylamino}-3-phenyl-propionic Acid], the IC50 is greater than 50 µM. Then `Cc1noc(-c2ccc(C(=O)N[C@H](Cc3ccc(F)cc3)C(=O)O)cc2)c1NC(=O)O[C@H](C)c1ccccc1Cl` [Example 21, (R)-2-(4-{4-[(R)-1-(2-Chloro-phenyl)-ethoxycarbonylamino]-3-methyl-isoxazol-5-yl}-benzoylamino)-3-(4-fluoro-phenyl)-propionic Acid], with less than 0.3 µM; and `Cc1noc(-c2ccc(C(=O)N[C@H](Cc3ccc(Cl)cc3)C(=O)O)cc2)c1NC(=O)O[C@H](C)c1ccccc1Cl` [Example 22, (R)-3-(4-Chloro-phenyl)-2-(4-{4-[(R)-1-(2-chloro-phenyl)-ethoxycarbonylamino]-3-methyl-isoxazol-5-yl}-benzoylamino)-propionic Acid], with less than 0.3 µM.

Turning to `Cc1noc(-c2ccc(C(=O)N[C@H](Cc3ccc(F)c(F)c3)C(=O)O)cc2)c1NC(=O)O[C@H](C)c1ccccc1Cl` [Example 23, (R)-2-(4-{4-[(R)-1-(2-Chloro-phenyl)-ethoxycarbonylamino]-3-methyl-isoxazol-5-yl}-benzoylamino)-3-(3,4-difluoro-phenyl)-propionic Acid], the IC50 is less than 0.3 µM. The same measure for `Cc1noc(-c2ccc(C(=O)N[C@H](Cc3ccccc3Cl)C(=O)O)cc2)c1NC(=O)O[C@H](C)c1ccccc1Cl` [Example 24, (R)-3-(2-Chloro-phenyl)-2-(4-{4-[(R)-1-(2-chloro-phenyl)-ethoxycarbonylamino]-3-methyl-isoxazol-5-yl}-benzoylamino)-propionic Acid]: less than 0.3 µM.

For the origin of these results see patent publication US11427552B2, “Heterocyclic compounds useful in the treatment of disease” (EPIGEN BIOSCIENCES, INC., priority 2013, dated 2022).
